Experimental findings from patent US9999624B2, “Combination Alzheimer therapy using anti-N3pGlu Abeta antibodies + a BACE inhibitor” (Eli Lilly and Company, priority 2014, dated 2018) are described below.

One data set has as its target human BACE1(1-460):Fc (Homo sapiens (Human), UniProt P56817). The data set can be described thus: BACE1 FRET Assay. It is filed as biochemical. To be noted: purified recombinant huBACE1:Fc, FRET substrate, pH 4.6; Mean ± SEM.
A further data set concerns young female PDAPP mice. The data set can be described thus: In Vivo Inhibition of Beta-Secretase (brain Abeta 1-x reduction). On the set-up: species or system mouse. The settings on record: for CNS penetration: inferred from brain Abeta lowering after oral dose; for Abeta 1-x peptide levels reduced in brain cortex / Abeta 1-x peptide levels reduced in brain hippocampus: 3 hours after administration, compared to vehicle-treated mice. The source says: Several animal models, including mouse, guinea pig, dog, and monkey, may be used to screen for inhibition of beta-secretase activity in vivo following compound treatment Animals used in this invention can be wild type, transgenic, or gene knockout animals. For example, the PDAPP mouse model, prepared as described in Games et al., Nature 373, 523-527 (1995), and other non-transgenic or gene knockout animals are useful to analyze in vivo inhibition of Abeta and sAPPbeta production in the presence of inhibitory compounds. Generally, 2 to 12 month old PDAPP mice, gene knockout mice or non-transgenic animals are administered compound formulated in vehicles, such as corn oil, cyclodextran, phosphate buffers, […]®, or other suitable vehicles. One to twenty-four hours following the administration of compound, animals are sacrificed, and brains as well as cerebrospinal fluid and plasma are removed for analysis of Abetas, C99, and sAPP fragments. (See May, et al., Journal of Neuroscience, 31, 16507-16516 (2011)). For standard in vivo pharmacology studies, animals are dosed with various concentrations of compound and compared to a vehicle-treated control group dosed at the same time. For some time course studies, brain tissue, plasma, or cerebrospinal fluid is obtained from selected animals, beginning at time 0 to establish a baseline. Compound or appropriate vehicle is administered to other groups and sacrificed at various times after dosing. Brain tissue, plasma, or cerebrospinal fluid is obtained from selected animals and analyzed for the presence of APP cleavage products, including Abeta peptides, sAPPbeta, and other APP fragments, for example, by specific sandwich ELISA assays. At the end of the test period, animals are sacrificed and brain tissues, plasma, or cerebrospinal fluid are analyzed for the presence of Abeta peptides, C99, and sAPPbeta, as appropriate. Brain tissues of APP transgenic animals may also be analyzed for the amount of beta-amyloid plaques following compound treatment. “Abeta 1-x peptide” as used herein refers to the sum of Abeta species that begin with […]-terminus greater than residue 28. This detects the majority of Abeta species and is often called “total Abeta”.

Data set [1] deals with primary cortical neurons from PDAPP transgenic embryonic mice. The data set can be described thus: PDAPP Primary Neuronal Assay (Abeta ELISA). The settings on record: Mus musculus, Primary cortical neuron, 24 h, Mean ± SEM. It counts as cell-based.

Counter-ions that a name gives are not always drawn. Like-named read-outs stand apart in the source and are kept apart here.

Sequence of human BACE1(1-460):Fc (P56817 22-460): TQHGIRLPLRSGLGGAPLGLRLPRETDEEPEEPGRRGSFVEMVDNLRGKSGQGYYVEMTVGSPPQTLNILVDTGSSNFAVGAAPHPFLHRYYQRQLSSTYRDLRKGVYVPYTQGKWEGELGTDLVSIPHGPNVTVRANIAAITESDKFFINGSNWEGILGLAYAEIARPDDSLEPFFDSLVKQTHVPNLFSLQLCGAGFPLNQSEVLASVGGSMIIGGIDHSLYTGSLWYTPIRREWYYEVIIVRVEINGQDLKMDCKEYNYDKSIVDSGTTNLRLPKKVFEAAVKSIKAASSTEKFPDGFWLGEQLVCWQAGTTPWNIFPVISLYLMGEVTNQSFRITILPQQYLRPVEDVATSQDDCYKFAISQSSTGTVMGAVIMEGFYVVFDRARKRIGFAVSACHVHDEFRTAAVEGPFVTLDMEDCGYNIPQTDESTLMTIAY

As to `Cl.NC1=N[C@@]2(c3cccc(NC(=O)c4ccc(F)cn4)c3)CN(c3ncc(F)cn3)C[C@H]2CS1` [Example 1, N-{3-[(4aR,7aS)-2-Amino-6-(5-fluoropyrimidin-2-yl)-4a,5,6,7-tetrahydropyrrolo[3,4-d][1,3]thiazin-7a(4H)-yl]phenyl}-5-fluoropyridine-2-carboxamide hydrochloride], the IC50 at human BACE1(1-460):Fc turned out to be 0.61 nM. Also, the CNS penetration entry in the data set on young female PDAPP mice is “demonstrate CNS penetration”.

In the case of `COc1cnc(C(=O)Nc2ccc(F)c([C@]34CN(c5ncc(F)cn5)C[C@H]3CSC(N)=N4)c2)cn1.Cl` [Example 4, N-[3-[(4aR,7aS)-2-Amino-6-(5-fluoropyrimidin-2-yl)-4,4a,5,7-tetrahydropyrrolo[3,4-d][1,3]thiazin-7a-yl]-4-fluoro-phenyl]-5-methoxy-pyrazine-2-carboxamide hydrochloride], the results for the “Abeta 1-x peptide levels reduced in brain cortex” value in the data set with young female PDAPP mice (0.3 mg/kg oral dose), with young female PDAPP mice (1 mg/kg oral dose) and with young female PDAPP mice (3 mg/kg oral dose) were “approximately 28%”, roughly 42% and roughly 64%, respectively. Also, the “Abeta 1-x peptide levels reduced in brain hippocampus” value with young female PDAPP mice (0.3 mg/kg oral dose) is recorded as “approximately 31%”; in the data set with young female PDAPP mice (1 mg/kg oral dose), roughly 39%; in the data set on young female PDAPP mice (3 mg/kg oral dose), roughly 61%. In addition, the CNS penetration entry in the data set on young female PDAPP mice is reported as “demonstrate CNS penetration”.

Consider `NC1=N[C@@]2(c3cccc(NC(=O)c4ncc(F)cc4F)c3)CN(c3ncc(F)cn3)C[C@H]2CS1` [Example 7, N-[3-[(4aR,7aS)-2-Amino-6-(5-fluoropyrimidin-2-yl)-4,4a,5,7-tetrahydropyrrolo[3,4-d][1,3]thiazin-7a-yl]phenyl]-3,5-difluoro-pyridine-2-carboxamide hydrochloride], for which the IC50 on human BACE1(1-460):Fc stood at 0.739 nM.

Take `N#Cc1ccc(C(=O)Nc2ccc(F)c([C@]34CN(c5ncc(F)cn5)C[C@H]3CSC(N)=N4)c2)nc1` [Example 8, N-[3-[(4aR,7aS)-2-Amino-6-(5-fluoropyrimidin-2-yl)-4,4a,5,7-tetrahydropyrrolo[3,4-d][1,3]thiazin-7a-yl]-4-fluoro-phenyl]-5-cyano-pyridine-2-carboxamide hydrochloride]: the IC50 in data set [1] (Abeta 1-40 in conditioned media, read-out: PDAPP Neuron A-beta (1-40) ELISA IC50) came to 0.137 nM; in data set [1] (Abeta 1-42 in conditioned media, read-out: PDAPP Neuron A-beta (1-42) ELISA IC50), 0.0725 nM.
